# In patent US4165428A, “Indoleacetic acid ester derivatives” (Hisamitsu Pharmaceutical Co., Inc., priority 1976, dated 1979):
# How the values were obtained:
# [1] = Acute toxicity (lethal dose); type: in vivo; details: mice, estimated from death 72 hours following administration
# Protocol: Each test compound suspended in 1% tragacanth-saline was administered intraperitoneally or orally to male mice of ddY-strain (body weight 16-24 g). The lethal dose was estimated from the death of animals 72 hours following administration.
# [2] = Ulcerogenic activity on rat stomach; type: in vivo, Male Wistar rats; details: oral, 20 mg/kg, 18 hours after administration; sum of area of erosion and ulcer
# Protocol: Male Wistar rats weighing 200-220 g were fasted for 24 hours. Indomethacin and the test drugs were suspended with 0.5% tragacanth solution, and these suspensions were given the animals orally at each dose of 20 mg/kg. The animals were sacrificed with ether 18 hours after administration. The excised stomachs were filled with 1% formalin solution and the whole were immersed in the 1% formalin solution for fixation. Thereafter, an incision was made parallel to the greater curvature to examine whether or not an erosion or ulcer occurs. The degree of erosion and ulcer was represented by the sum of area (mm^2).
# [3] = Anti-inflammatory activity for oral route (carrageenin edema of hind paw); type: in vivo, male rats of Wistar-strain; details: for anti-inflammatory effect for oral route (relative inhibition versus indomethacin): 10mg/kg, percent inhibition divided by that of indomethacin, edema measured after 3 hours
# Protocol: A group of five male rats of Wistar-strain (body weight 100-150 g) were orally given each test compound suspended in 0.5% tragacanth-saline. After one hour 1.0% carrageenin suspended in the water for injection was injected subcutaneously to a hind paw.
smiles,measurement,setting,value
COc1ccc2c(c1)c(CC(=O)OCc1ccccc1C)c(C)n2C(=O)c1ccc(Cl)cc1,acute toxicity for oral route (lethal dose),[1],> 500 mg/kg
same,gastric ulcer index,[2],0.19 ± 0.13 mm^2
"COc1ccc2c(c1)c(CC(=O)O)c(C)n2C(=O)c1ccc(Cl)cc1 [indomethacin, reference compound]",mean percent inhibition of carrageenin edema,[3]; 10 mg/kg,41.1%
same,anti-inflammatory effect for oral route (relative inhibition versus indomethacin),[3],1.0
same,acute toxicity for oral route (lethal dose),[1],10 to 20 mg/kg
same,gastric ulcer index,[2],6.75 ± 1.98 mm^2
COc1ccc2c(c1)c(CC(=O)OCc1ccc(C)cc1)c(C)n2C(=O)c1ccc(Cl)cc1,anti-inflammatory effect for oral route (relative inhibition versus indomethacin),[3],1.00
same,acute toxicity for oral route (lethal dose),[1],500 mg/kg
same,gastric ulcer index,[2],0.88 ± 0.39 mm^2
COc1ccc2c(c1)c(CC(=O)OCc1cccc(F)c1)c(C)n2C(=O)c1ccc(Cl)cc1,anti-inflammatory effect for oral route (relative inhibition versus indomethacin),[3],0.68
same,acute toxicity for oral route (lethal dose),[1],> 500 mg/kg
same,gastric ulcer index,[2],0.50 ± 0.38 mm^2
COc1ccc2c(c1)c(CC(=O)OCc1ccc(F)cc1)c(C)n2C(=O)c1ccc(Cl)cc1,anti-inflammatory effect for oral route (relative inhibition versus indomethacin),[3],0.41
same,acute toxicity for oral route (lethal dose),[1],> 500 mg/kg
same,gastric ulcer index,[2],0.13 ± 0.08 mm^2
COc1ccc2c(c1)c(CC(=O)OCc1ccccc1F)c(C)n2C(=O)c1ccc(Cl)cc1,anti-inflammatory effect for oral route (relative inhibition versus indomethacin),[3],0.76
same,acute toxicity for oral route (lethal dose),[1],> 500 mg/kg
same,gastric ulcer index,[2],0.50 ± 0.30 mm^2
COc1ccc2c(c1)c(CC(=O)OCc1cccc(C)c1)c(C)n2C(=O)c1ccc(Cl)cc1,acute toxicity for oral route (lethal dose),[1],200 to 500 mg/kg
same,gastric ulcer index,[2],0.13 ± 0.08 mm^2
